Key:
[1] = system: PD-L1 positive C8161 melanoma tumor cells; test: In vivo efficacy, C8161 melanoma tumors in athymic nude mice; settings: one IV tail vein injection; atezolizumab 18 mg/kg, ABX 45 mg/kg, AA130 = 18 mg/kg atezolizumab and 45 mg/kg ABX
Description: Athymic nude mice (Harlan Sprague Dawley) were injected with 2×10^6 PD-L1 positive C8161 melanoma tumor cells. The tumors were allowed to grow until about 600 mm^3 and were treated by 100 μl IV tail vein injection with saline, atezolizumab alone (18 mg/kg), ABX alone (45 mg/kg) and AA130 (18 mg/kg atezolizumab and 45 mg/kg ABX) one time (FIGS. 5A-5D). Tumor growth was monitored 3 times/week. Tumor size was calculated with the equation: (length×width^2)/2.
Kaplan Meier curves were generated using Graph Pad software. The median survival for each group was 14, 13, 16, and 21.5 days for saline, atezolizumab, ABX and AA130, respectively. Survival differences between AA130 and all other groups were significant with p-values of 0.0008 for saline, 0.0015 for atezolizumab, and 0.0113 for Abraxane.

ABX = biological target: T1, ABX (Homo sapiens, UniProt P02768); test: Biolayer interferometry (BLItz) binding of atezolizumab to ABX; settings: biotinylated atezolizumab on streptavidin probe; ABX 100, 500, 1000 μg/mL in 1×PBS; read-out: Kd (binding affinity between atezolizumab and ABX)
T1 construct: purchased Celgene Corp
Description: To determine whether atezolizumab and ABX are capable of interacting to form nanoparticle complexes, Biolayer interferometry (BLItz) (Forte Bioscience) was performed using streptavidin probes. 100 ug/ml of biotinylated atezolizumab in 1×PBS was bound to the streptavidin probe. After washing unbound atezolizumab from the probe, the antibody-bound probe was exposed to ABX at concentrations of 100, 500, 1000 μg/mL in 1×PBS. An antibody probe exposed to PBS was used as background and background was subtracted. BLItz software was used to calculate dissociation constants (FIG. 1).

“atezolizumab: fully humanized, Fc-modified monoclonal antibody of IgG1 isotype against PD-L1” was tested. Which median survival [1] did it give?
The median survival was 13 days.

And the Kd (ABX)?
The Kd was 1.46 nM.

— patent publication US11427637B2, “Methods of treating PD-L1 expressing cancer” (Mayo Foundation for Medical Education and Research, priority 2016, dated 2022)
